Source: patent US8022034B2, “Combination therapy for the treatment of diabetes and conditions related thereto and for the treatment of conditions ameliorated by increasing a blood GLP-1 level” (Arena Pharmaceuticals, Inc., priority 2005, dated 2011)
pEC50: −log10 of the molar value. Blank lines part the entries; values can stand above or below the compound they belong to.

Legend:
[1] = biological target: T1, GPR119 (GLUTag-Fla cells which express GPR119) (Mus musculus, UniProt Q7TQP3); assay: Flash Plate adenylyl cyclase (cAMP) assay with GLUTag-Fla cell membranes; format: biochemical
T1 construct: endogenous in cells; host or cells: GLUTag-Fla (mouse enteroendocrine cell line), membrane preparation
T1 sequence (Q7TQP3 1-335): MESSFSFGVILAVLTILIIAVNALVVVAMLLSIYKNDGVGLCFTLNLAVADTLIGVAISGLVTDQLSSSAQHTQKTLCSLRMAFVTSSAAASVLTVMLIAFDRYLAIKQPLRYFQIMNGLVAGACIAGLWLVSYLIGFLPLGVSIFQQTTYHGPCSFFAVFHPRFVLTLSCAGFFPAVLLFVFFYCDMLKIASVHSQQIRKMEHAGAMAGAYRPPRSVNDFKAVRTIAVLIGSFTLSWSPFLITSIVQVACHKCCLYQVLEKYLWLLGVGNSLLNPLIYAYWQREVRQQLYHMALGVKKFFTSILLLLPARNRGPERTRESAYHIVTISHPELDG
Procedure: (§1) GLUTag is a mouse enteroendocrine cell line that secretes GLP-1 [Brubaker et al., Endocrinology (1998) 139:4108-4114]. The effect of GPR119 agonist on the level of intracellular cAMP in GLUTag (Fla subline) enteroendocrine cells was determined. The Fro subline of GLUTag was used as a negative control.
(§2) GluTag (GLUTag-Fla and GLUTag-Fro) cells were plated at […] in 15-cm tissue culture plate with regular growth medium. On the next day, cells were scraped off with cold Scraping Buffer (20 mM HEPES, 10 mM EDTA, pH7.4) and spinned down at 1000 rpm for 17 mins at 4° C. Cell pellets were washed with cold Membrane Wash Buffer (20 mM HEPES, 0.1 mM EDTA, pH7.4) and spun again as above. […] Protein concentration was determined by Bradford Assay. […]
(§3) The cyclase assay was done with a Flash Plate™ Adenylyl Cyclase kit (New England Nuclear; Cat. No. SMP004A). […] The cAMP generated in the wells can be quantitated by a direct competition for binding of radioactive cAMP tracer to the cAMP antibody.
(§4) Details of the cyclase assay as it was carried out are described here. cAMP standards and Detection Buffer (comprising 1 μCi of tracer [125I]cAMP (50 μl) to 11 ml Detection Buffer) were prepared and maintained in accordance with the manufacturer's instructions. […] Plates were incubated for an additional two hours, after which the samples were counted in a Wallac MicroBeta scintillation counter. […]

[2] = tested on: GLUTag-Fla cells; assay: GLP-1 secretion in GLUTag-Fla cells (GLP-1 Active ELISA); format: cell-based, mouse; settings: various concentrations, serum free DMEM with 15 mM glucose, one hour at 37° C.
Procedure: GLUTag-Fla cells (see Example 12, supra) were plated in 24-well plates on day one in complete culture medium (DMEM/10% FBS). On day two the culture medium was replaced with a low glucose medium (DMEM/3 mM Glucose/10% FBS). On day three cells were washed twice with 1XPBS. The washed GLUTag-Fla cells were stimulated with GPR119 agonist (AR231453) at various concentrations or with forskolin (1 uM) as a positive control in serum free DMEM with 15 mM glucose for one hour at 37° C. and 5% CO2 in a tissue culture incubator. The supernatants were then collected and clarified by centrifugation at 500 g and 4° C. for 5 minutes. GLP-1 released into the supernatant was determined by ELISA using reagents purchased from LINCO Research Laboratory [Glucagon-Like Peptide-1 (Active) ELISA Kit. Cat. #EGLP-35K].

[3] = tested on: elevated blood glucose level; assay: Oral glucose tolerance test (oGTT) in mice (Example 1); format: in vivo
Procedure: Oral glucose tolerance test (oGTT) in mice was carried out as described here. Overnight fasted mice (n=6 mice per treatment) were administered via oral gavage with vehicle (PET), a GPR119 agonist (AR231453) at 1 mkg (milligram compound per kilogram of body weight), a DPP-IV inhibitor (AR247810) at 0.1 mkg, or a combination of the GPR119 agonist (1 mkg) and the DPP-IV inhibitor (0.1 mkg). Thirty minutes later, a glucose bolus (3 gram/kg) was then delivered per orally. Plasma glucose levels were determined at the indicated time points over a two hour period using blood (˜5 μl) collected from tail nick and a glucose meter. Glycemic excursion curve was graphed based on data from 6 mice and given in mean values+/−SEM (FIG. 1A).

[4] = tested on: GLUTag-Fro cells which do not express GPR119; assay: Flash Plate adenylyl cyclase (cAMP) assay with GLUTag-Fro cell membranes (negative control); format: biochemical, mouse
Procedure: as §1, §2, §3, §4

[5] = tested on: blood glucose level; assay: Oral glucose tolerance test (oGTT) in C57BL/6J mice (Example 14); format: in vivo; settings: DPP-IV inhibitor alone, 1 mpk oral gavage, one hour before glucose bolus 2 gram/kg
Procedure: Oral glucose tolerance test (oGTT) in 7-8 week old C57BL/6J mice was carried out as described here. […] GPR119 agonist AR244061 was administered at 10 mpk or 30 mpk (milligram compound per kilogram of body weight). […] One hour after compound dosing, a glucose bolus (2 gram/kg) was delivered per orally, and tail blood samples were collected to measure blood glucose at 0, 30, 60 and 120 minutes. […] For each treatment group, glycemic excursion curve was graphed and is presented with blood glucose concentration given in mean values+/− standard error of the mean (SEM). Area Under Curve (AUC) of the glycemic excursion was calculated and reported as AUC (% of vehicle control).

Elevation of the level of intracellular cAMP ([1]; GLUTag-Fla cells which express GPR119): elevate the level of intracellular cAMP
pEC50 ([1]; GLUTag-Fla membranes, eight doses from 10 uM to 1.27 nM, 60 min at room temperature, read-out: EC50 for elevation of cAMP in GLUTag cells): ~8.37
Compound: CC(C)c1noc(C2CCN(c3ncnc(Nc4ccc(S(C)(=O)=O)cc4F)c3[N+](=O)[O-])CC2)n1 [AR231453]
GLP-1 secretion on stimulation [2]: secrete GLP-1
AUC inhibition (effective therapeutic response) ([3]; compound alone at significantly higher doses (FIG. 1C, FIG. 1D)): around 40%
Elevation of the level of intracellular cAMP [4]: not

Compound: N#C[C@@H]1CCCN1C(=O)CNC12CC3CC(CC(O)(C3)C1)C2 [LAF237, (1-[[3-hydroxy-1-adamantyl)amino]acetyl]-2-cyano-(S)-pyrrolidine]
Glycemic control in oGTT [5]: measurable glycemic control

Compound: N[C@@H](CC(=O)N1CCn2c(nnc2C(F)(F)F)C1)Cc1cc(F)c(F)cc1F [MK-0431, 3(R)-Amino-1-[3-(trifluoromethyl)-5,6,7,8-tetrahydro[1,2,4]triazolo[4,3-a]pyrazin-7-yl]-4-(2,4,5-trifluorophenyl)butan-1-one]
Glycemic control in oGTT [5]: measurable glycemic control

Compound: exendin-4: incretin mimetic [reference compound]
AUC inhibition of glycemic excursion ([3]; incretin mimetic in this mouse model, dose not given): ~60%
